Patent US9988607B2, “Artificial three-dimensional microenvironment niche culture and methods of using the same” (priority 2008, dated 2018)

How the values were obtained:
Format in all cases: cell-based, human
[1] = system: HDF cells; experiment: ViPS pluripotency factor replacement: chemical induction of iPS colonies in 3D microenvironment niche culture; details: HDF in 3D ES cell microenvironment niche culture; preliminary
Excerpt: To test the possibility of chemical induction of pluripotency in human dermal fibroblasts, well known compounds affecting these pluripotency factors were substituted for expression of the pluripotency factors from viral expression vectors. Candidate compounds included those that affect the Wnt pathway because activation of this pathway had been reported to be involved in OCT 3/4, Sox-2, and Nanog activation. The initial compounds tested included: BIO (6-bromoindirubin-3′-oxime), a specific pharmacological inhibitor of glycogen synthase kinase known to stimulate Wnt signaling and maintain pluripotency in human and mouse embryonic stem cells (Sato et al., Nat. Med. (2004) 10:55-63); prostaglandin E2 (PGE2), reported to be an activator of Wnt pathway via “cross talk” at the beta-catenin signal level; valproic acid, a histone deacetylase (HDAC) inhibitor, and Wnt pathway activator (Bug et al. (2005) Cancer Res 65:2537-41). […] These compounds were chosen for further experimentation since their mechanism of activity was previously determined and they appeared to activate the pluripotency signal transduction pathway (e.g. Wnt pathway).
Compounds were added to HDF cells grown in 3D ES cell microenvironment niche cultures (prepared as described above in EXAMPLES 1 and 2), to evaluate whether they would rescue iPS phenotype in the absence of individual pluripotency factors introduced retrovirally. ViPS cells, induced with lentiviral transduction of pluripotency factor genes (OCT4, Sox2, Nanog, Klf4) as described by Takahashi et al. ((2007), Cell 131:1-12). Data is presented as the number of colonies with iPS morphology observed per 100,000 host cells.
Stem cell self renewal optimized 3-D hydrogel ES microenvironment niche conditions (as described in EXAMPLEs 1 and 2) were found necessary for chemical induction of iPS state. Pluripotency was not observed when standard tissue culture plates or those coated with Matrigel or methylcellulose were substituted for the 3D microenvironment conditions.

[2] = system: OCT3/4, SOX2, LIN28, KLF4 promoters; experiment: Promoter-GFP reporter screen of compound library in HDF cells in 3D hyaluronan hydrogel niche culture; details: for Activation of expression of one or more of the target promoters: GFP fluorescence after 4 days of incubation, normalized to ViPS control; for Optimized Concentration: empirically determined through repeat experiments with a broad range of concentrations
Description: (§1) Replicate microspots were prepared in Complete Media and transfected with reporter constructs for genes critically expressed in pluripotent cells. The reporter constructs contained promoter regions of one of the genes listed in Table 6 operably linked to a green fluorescent protein (GFP) coding region in pGlow TOPO TA (Invitrogen).
(§2) Briefly, a transient transfection mixture containing Lipofectamine 2000 (0.4 μl/24 μl total hyaluronan volume, Invitrogen) and promoter-Green Fluorescent Protein (GFP) construct in (500 ng) was added to each microspot.
(§3) Library screening was performed by including dilution series of each compound in mTeSR-1 medium, to HDF cells embedded in 3D hyaluronan hydrogel microenvironment niche culture optimized as described above in EXAMPLES 1 and 2.
(§4) After 4 days of incubation with target compounds, relative fluorescence from expression of the GFP constructs was recorded using a fluorescent microplate reader. Values were normalized to reflect percent fluorescence of control (ViPS) cells.
Compounds that activated expression of one or more of the target promoters were scored as positive.

[3] = system: OCT4 promoter; experiment: Promoter-GFP reporter screen in HDF cells, OCT4 promoter; details: FIG. 7
Description: as §1, §2, §3, §4

[4] = system: SOX2 promoter; experiment: Promoter-GFP reporter screen in HDF cells, SOX2 promoter; details: FIG. 7
Description: as §1, §2, §3, §4

SMILES | Replacement of virally transduced pluripotency factors (colonies with iPS morphology per 100,000 host cells) [1] | Activation of expression of one or more of the target promoters [2] | Optimized Concentration [2] | Expression of OCT4 promoter [3] | Expression of SOX2 promoter [4]
CCCCC[C@H](O)/C=C/[C@H]1C(=O)C=C[C@@H]1C/C=C\CCCC(=O)O [D9-9811, Prostaglandin J2] | could be used to replace virally transduced pluripotency factors | positive | 10 µM | – | –
CCCC(CCC)C(=O)O [D10-8976, Valproic Acid] | could be used to replace virally transduced pluripotency factors | positive | 2000 µM | stimulate expression | stimulate expression
Cc1cccc(-c2n[nH]cc2-c2ccc3ncccc3n2)n1 [D21-8765, 2-(3-(6-Methylpyridin-2-yl)-1H-pyrazol-4-yl)-1,5-naphthyridine] | – | positive | 25000 µM | – | –
O=C1Nc2ccc([N+](=O)[O-])cc2C1=C1Nc2ccccc2C1=NO [D3-8976, Indirubin-5-nitro-3′-oxime] | – | positive | 4 µM | – | –
Br.Cc1ccc(C(=O)Cn2c3c(sc2=N)CCCC3)cc1 [D12-2234, 1-(4-Methylphenyl)-2-(4,5,6,7-tetrahydro-2-imino-3(2H)-benzothiazolyl)ethanone HBr] | – | positive | 30 µM | – | –
CCCCC[C@H](O)/C=C/[C@H]1[C@H](O)CC(=O)[C@@H]1C/C=C\CCCC(=O)O [D2-6542, Prostaglandin E2] | could be used to replace virally transduced pluripotency factors | positive | 10 µM | – | –
O=C1Nc2cc(Br)ccc2/C1=C1/Nc2ccccc2/C1=N\O [D9-6452, 6-bromoindirubin-3′-oxime] | could be used to replace virally transduced pluripotency factors | positive | 4 µM | – | –
